In the oligonucleotide strings, read from the 5' end, every base follows the letter of its sugar. An asterisk marks phosphorothioate; unmarked linkages are phosphodiester. Other units and linkages are bracketed, terminal groups are in braces. A string of capitals states the bases alone. {NAG37} = tridentate N-acetyl-galactosamine targeting ligand, structure (NAG37)s; [invAb] = inverted abasic unit; m = 2'-O-methyl; f = 2'-fluoro
Experiments:
ANGPTL3 protein = test: Example 4: serum ANGPTL3 protein by ELISA in mice; format: in vivo, C57bl/6 mice; conditions: for Avg ANGPTL3 (Average ANGPTL3 Protein Normalized to Pre-Treatment and Control): 1.0 mg/kg single subcutaneous dose on day 1, serum, female C57bl/6 mice
Procedure: (§1) To assess the in vivo activity of ANGPTL3 RNAi agents that are designed to target additional positions on the ANGPTL3 gene, six- to eight-week-old female C57bl/6 mice were used. Pre-dose serum samples were taken at day −1 after a four hour fast. At day 1, each mouse was given a single subcutaneous administration of 200 μl containing either 1 mg/kg (mpk) or 0.5 mg/kg (mpk) of an ANGPTL3 RNAi agent in D5W (dextrose in 5% water), or control (D5W) with no RNAi agent, according to the dosing groups recited in Table 17.
(§2) Each of the RNAi agents included a modified sequence and an N-acetyl-galactosamine-containing targeting ligand conjugated to the 5′ terminal end of the sense strand. (See Tables 3, 4, and 5 for modified sequences and targeting ligand structures). The injections were performed between the skin and muscle (i.e. subcutaneous injections) into the loose skin over the neck and shoulder area. Three (3) mice in each group were tested (n=3). Serum was collected on days 8, 15, 22, 29, and day 43 (Groups 1-3, 9, and 11-13 only). Mice were fasted for four hours prior to each collection. ANGPTL3 protein levels in serum were measured by ELISA assay (R&D Systems), according to the manufacturer's recommendations. Triglycerides, high-density lipoprotein (HDL), and total cholesterol in serum were measured on a Cobas® Integra 400 (Roche Diagnostics), according to the manufacturer's recommendations.
(§3) The ANGPTL3 protein levels, triglyceride levels, HDL levels, and total cholesterol levels for each animal were normalized. For normalization, the level of ANGPTL3 protein, triglyceride, HDL, and total cholesterol, respectively, for each animal at a time point, was divided by the pre-treatment level of expression in that animal (in this case at day −1) to determine the ratio of expression “normalized to pre-treatment.” Expression at a specific time point was then normalized to the D5W control group by dividing the “normalized to pre-treatment” ratio for an individual animal by the mean “normalized to pretreatment” ratio of all mice in the D5W control group.

ANGPTL3 gene [1] = test: Example 7: serum LDL in mice; format: in vivo; design: key: ratio: (level/pre-treatment day -1 level) ÷ mean of D5W control group; conditions: 0.5 mg/kg single SC injection day 1, female C57bl/6 mice, n=3, ratio to D5W control
Procedure: (§4) To further assess the in vivo activity of additional ANGPTL3 RNAi agents that are designed to target position 304 on the ANGPTL3 gene, six- to eight-week-old female C57bl/6 mice were used. Pre-dose serum samples were taken at day −1 after a four hour fast. At day 1, each mouse was given a single subcutaneous administration of 200 μl containing 0.5 mg/kg (mpk) of an ANGPTL3 RNAi agent in D5W (dextrose in 5% water), or control (D5W) with no RNAi agent, according to the dosing groups recited in Table 31.
as §2, with “22,” for “22, 29,”, “29.” for “day 43 (Groups 1-3, 9, and 11-13 only).”, “Triglycerides, total cholesterol,” for “Triglycerides,”, “low-density lipoprotein (LDL)” for “total cholesterol”
(§5) The ANGPTL3 protein levels, triglyceride levels, total cholesterol levels, HDL levels, and LDL levels for each animal were normalized. For normalization, the level of ANGPTL3 protein, triglyceride, HDL, and total cholesterol, respectively, for each animal at a time point, was divided by the pre-treatment level of expression in that animal (in this case at day −1) to determine the ratio of expression “normalized to pre-treatment.” Expression at a specific time point was then normalized to the D5W control group by dividing the “normalized to pre-treatment” ratio for an individual animal by the mean “normalized to pretreatment” ratio of all mice in the D5W control group.

ANGPTL3 gene [2] = test: Example 4: serum HDL in mice; format: in vivo, C57bl/6 mice
Procedure: as §1, §2, §3

ANGPTL3 gene [3] = test: Example 7: serum triglycerides in mice; format: in vivo, C57bl/6 mice; design: key: ratio: (level/pre-treatment day -1 level) ÷ mean of D5W control group
Procedure: as §4
as §2, with “22,” for “22, 29,”, “29.” for “day 43 (Groups 1-3, 9, and 11-13 only).”, “Triglycerides, total cholesterol,” for “Triglycerides,”, “low-density lipoprotein (LDL)” for “total cholesterol”
as §5

ANGPTL3 gene [4] = test: Example 4: serum triglycerides in mice; format: in vivo
Procedure: as §1, §2, §3

ANGPTL3 gene [5] = test: Example 4: serum LDL in mice; format: in vivo, C57bl/6 mice; conditions: for Avg LDL, normalized to pre-treatment and control: 1.0 mg/kg single SC injection on day 1, serum, n=3
Procedure: as §1, §2, §3

ANGPTL3 gene [6] = test: Example 7: serum total cholesterol in mice; format: in vivo, C57bl/6 mice; design: key: ratio: (level/pre-treatment day -1 level) ÷ mean of D5W control group
Procedure: as §4
as §2, with “22,” for “22, 29,”, “29.” for “day 43 (Groups 1-3, 9, and 11-13 only).”, “Triglycerides, total cholesterol,” for “Triglycerides,”, “low-density lipoprotein (LDL)” for “total cholesterol”
as §5

[7] = Day 8, 1.0 mg/kg single SC injection on day 1, n=3
[8] = Day 15, 1.0 mg/kg single SC injection on day 1, n=3
[9] = Day 22, 1.0 mg/kg single SC injection on day 1, n=3
[10] = Day 29, 1.0 mg/kg single SC injection on day 1, n=3
[11] = Day 43, 1.0 mg/kg single SC injection on day 1, n=3
[12] = Day 8, 0.5 mg/kg single SC injection on day 1, n=3
[13] = Day 15, 0.5 mg/kg single SC injection on day 1, n=3
[14] = Day 22, 0.5 mg/kg single SC injection on day 1, n=3
[15] = Day 29, 0.5 mg/kg single SC injection on day 1, n=3
[16] = Day 8, 1.0 mg/kg single subcutaneous dose on day 1, female C57bl/6 mice
[17] = Day 15, 1.0 mg/kg single subcutaneous dose on day 1, female C57bl/6 mice
[18] = Day 22, 1.0 mg/kg single subcutaneous dose on day 1, female C57bl/6 mice
[19] = Day 29, 1.0 mg/kg single subcutaneous dose on day 1, female C57bl/6 mice
[20] = Day 43, 1.0 mg/kg single subcutaneous dose on day 1, female C57bl/6 mice

Substance	Avg ANGPTL3 (Average ANGPTL3 Protein Normalized to Pre-Treatment and Control) (ANGPTL3 protein; Day 8)	Avg ANGPTL3 (Average ANGPTL3 Protein Normalized to Pre-Treatment and Control) (ANGPTL3 protein; Day 15)	Avg ANGPTL3 (Average ANGPTL3 Protein Normalized to Pre-Treatment and Control) (ANGPTL3 protein; Day 22)	Avg ANGPTL3 (Average ANGPTL3 Protein Normalized to Pre-Treatment and Control) (ANGPTL3 protein; Day 29)	Avg ANGPTL3 (Average ANGPTL3 Protein Normalized to Pre-Treatment and Control) (ANGPTL3 protein; Day 43)	Avg LDL, normalized to pre-treatment and control (ANGPTL3 gene [1]; Day 8)	Avg LDL, normalized to pre-treatment and control (ANGPTL3 gene [1]; Day 15)	Avg LDL, normalized to pre-treatment and control (ANGPTL3 gene [1]; Day 22)	Avg LDL, normalized to pre-treatment and control (ANGPTL3 gene [1]; Day 29)	Avg HDL, normalized to pre-treatment and control (ANGPTL3 gene [2]; [7])	Avg HDL, normalized to pre-treatment and control (ANGPTL3 gene [2]; [8])	Avg HDL, normalized to pre-treatment and control (ANGPTL3 gene [2]; [9])	Avg HDL, normalized to pre-treatment and control (ANGPTL3 gene [2]; [10])	Avg HDL, normalized to pre-treatment and control (ANGPTL3 gene [2]; [11])	Avg TG, normalized to pre-treatment and control (ANGPTL3 gene [3]; [12])	Avg TG, normalized to pre-treatment and control (ANGPTL3 gene [3]; [13])	Avg TG, normalized to pre-treatment and control (ANGPTL3 gene [3]; [14])	Avg TG, normalized to pre-treatment and control (ANGPTL3 gene [3]; [15])	Avg TG (Average Triglycerides Normalized to Pre-Treatment and Control) (ANGPTL3 gene [4]; [16])	Avg TG (Average Triglycerides Normalized to Pre-Treatment and Control) (ANGPTL3 gene [4]; [17])	further results
AD05418: RNAi agent duplex: antisense AM07159-AS, sense AM07158-SS (antisense mU*fU*mU*fGmAfAmUfUmAfAmUfGmUfCmCfAmUfGmGfG*mU; sense {NAG37}*[invAb]*mAmCmCmCmAmUmGmGfAfCfAmUmUmAmAmUmUmCmAmAmA*[invAb])	0.258	0.270	0.387	0.407	0.847	1.160	0.928	0.950	1.131	0.828	0.730	0.846	0.845	1.018	0.830	0.655	0.815	0.586	0.858	1.065	Avg TG (Average Triglycerides Normalized to Pre-Treatment and Control) (ANGPTL3 gene [4]; [18]): 1.079; Avg TG (Average Triglycerides Normalized to Pre-Treatment and Control) (ANGPTL3 gene [4]; [19]): 0.980; Avg TG (Average Triglycerides Normalized to Pre-Treatment and Control) (ANGPTL3 gene [4]; [20]): 0.892; Avg LDL, normalized to pre-treatment and control (ANGPTL3 gene [5]; Day 8): 1.044; Avg LDL, normalized to pre-treatment and control (ANGPTL3 gene [5]; Day 15): 0.841; Avg LDL, normalized to pre-treatment and control (ANGPTL3 gene [5]; Day 22): 1.142; Avg LDL, normalized to pre-treatment and control (ANGPTL3 gene [5]; Day 29): 0.966; Avg LDL, normalized to pre-treatment and control (ANGPTL3 gene [5]; Day 43): 0.921; Avg Total Chol, normalized to pre-treatment and control (ANGPTL3 gene [6]; [12]): 0.950; Avg Total Chol, normalized to pre-treatment and control (ANGPTL3 gene [6]; [13]): 0.878; Avg Total Chol, normalized to pre-treatment and control (ANGPTL3 gene [6]; [14]): 0.926; Avg Total Chol, normalized to pre-treatment and control (ANGPTL3 gene [6]; [15]): 1.023
AD05488: RNAi agent duplex: antisense AM07235-AS, sense AM07234-SS (antisense mU*fA*mC*fUmGfAmUfCmAfAmAfUmAfUmGfUmUfGmAfG*mC; sense {NAG37}*[invAb]*mGmCmUmCmAmAmCmAfUfAfUmUmUmGmAmUmCmAmGmUmA*[invAb])	0.090	0.070	0.092	0.124	0.254	0.953	0.825	0.860	1.055	0.839	0.644	0.727	0.771	0.833	0.856	0.947	0.922	0.877	0.624	0.795	ANGPTL3 protein normalized to pre-treatment and control (ANGPTL3 protein; day 15, single 1 mg/kg subcutaneous, C57bl/6 mice): 0.070; ANGPTL3 protein normalized to pre-treatment and control (ANGPTL3 protein; day 22, single 1 mg/kg subcutaneous, C57bl/6 mice): 0.092; knockdown of ANGPTL3 protein (ANGPTL3 protein; days 15 and 22, single 1 mg/kg subcutaneous, C57bl/6 mice): greater than 90%; Avg TG (Average Triglycerides Normalized to Pre-Treatment and Control) (ANGPTL3 gene [4]; [18]): 0.837; Avg TG (Average Triglycerides Normalized to Pre-Treatment and Control) (ANGPTL3 gene [4]; [19]): 0.721; Avg TG (Average Triglycerides Normalized to Pre-Treatment and Control) (ANGPTL3 gene [4]; [20]): 0.901; Avg LDL, normalized to pre-treatment and control (ANGPTL3 gene [5]; Day 8): 0.936; Avg LDL, normalized to pre-treatment and control (ANGPTL3 gene [5]; Day 15): 0.714; Avg LDL, normalized to pre-treatment and control (ANGPTL3 gene [5]; Day 22): 0.811; Avg LDL, normalized to pre-treatment and control (ANGPTL3 gene [5]; Day 29): 0.801; Avg LDL, normalized to pre-treatment and control (ANGPTL3 gene [5]; Day 43): 0.902; LDL levels reduced (ANGPTL3 gene [5]; day 29, single 1 mg/kg subcutaneous, C57bl/6 mice): ~20%; Avg Total Chol, normalized to pre-treatment and control (ANGPTL3 gene [6]; [12]): 0.802; Avg Total Chol, normalized to pre-treatment and control (ANGPTL3 gene [6]; [13]): 0.810; Avg Total Chol, normalized to pre-treatment and control (ANGPTL3 gene [6]; [14]): 0.810; Avg Total Chol, normalized to pre-treatment and control (ANGPTL3 gene [6]; [15]): 0.906
